Measurements reported in patent US20230278972A1, “SUBSTITUTED HALOALKYL SULFONANILIDE HERBICIDES” (FMC Corporation, priority 2020, published 2023).

Columns and labels:
Assay type in all cases: in vivo
[1] = test system: barnyardgrass (Echinochloa crus-galli); test: Test A preemergence, barnyardgrass; conditions: Preemergence; for Plant response rating, Barnyardgrass: 125 g ai/ha, visual injury, 0 to 100 scale (0 no effect, 100 complete control), approx. 10 days; for Barnyardgrass plant response rating: 500 g ai/ha, visual injury on 0 to 100 scale (0 no effect, 100 complete control), approximately 10 days
Outline: (§1)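 Postemergence ratings come from foliar sprays onto one- to two-leaf plants of 2 to 10 cm grown in loam/sand; preemergence ratings come from a directed spray onto the soil of newly seeded pots. Formulation was a surfactant-containing non-phytotoxic solvent blend.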

[2] = test system: kochia (Bassia scoparia); test: Test A preemergence, kochia; conditions: Preemergence; for Plant response rating, Kochia: 125 g ai/ha, visual injury, 0 to 100 scale (0 no effect, 100 complete control), approx. 10 days; for Kochia plant response rating: 500 g ai/ha, visual injury on 0 to 100 scale (0 no effect, 100 complete control), approximately 10 days
Outline: as §1

[3] = test system: ragweed (common ragweed, Ambrosia artemisiifolia); test: Test A preemergence, ragweed; conditions: Preemergence; for Plant response rating, Ragweed: 125 g ai/ha, visual injury, 0 to 100 scale (0 no effect, 100 complete control), approx. 10 days; for Ragweed plant response rating: 500 g ai/ha, visual injury on 0 to 100 scale (0 no effect, 100 complete control), approximately 10 days
Outline: as §1

[4] = test system: Ryegrass, Italian (Italian ryegrass, Lolium multiflorum); test: Test A preemergence, Ryegrass, Italian; conditions: Preemergence; for Plant response rating, Ryegrass, Italian: 125 g ai/ha, visual injury, 0 to 100 scale (0 no effect, 100 complete control), approx. 10 days; for Ryegrass, Italian plant response rating: 500 g ai/ha, visual injury on 0 to 100 scale (0 no effect, 100 complete control), approximately 10 days
Outline: as §1

[5] = test system: Foxtail, Giant (giant foxtail, Setaria faberi); test: Test A preemergence, Foxtail, Giant; conditions: Preemergence; for Plant response rating, Foxtail, Giant: 125 g ai/ha, visual injury, 0 to 100 scale (0 no effect, 100 complete control), approx. 10 days; for Foxtail, Giant plant response rating: 500 g ai/ha, visual injury on 0 to 100 scale (0 no effect, 100 complete control), approximately 10 days
Outline: as §1

[6] = test system: pigweed (Amaranthus retroflexus); test: Test A preemergence, pigweed; conditions: for Plant response rating, Pigweed: 125 g ai/ha, visual injury, 0 to 100 scale (0 no effect, 100 complete control), approx. 10 days; for Pigweed plant response rating: 500 g ai/ha, visual injury on 0 to 100 scale (0 no effect, 100 complete control), approximately 10 days
Outline: (§2)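 Preemergence: pigweed seeds in loam soil–sand blend received a directed soil spray of test chemicals in a non-phytotoxic solvent with surfactant. Postemergence: barnyardgrass, wheat and galium in pots of the same soil, 2 to 10 cm tall at one- to two-leaf stage, sprayed with the same formulation.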

[7] = test system: barnyardgrass (Echinochloa crus-galli); test: Test A postemergence, barnyardgrass; conditions: Postemergence, 0 to 100 scale (0 no effect, 100 complete control)
Outline: as §2

[8] = test system: kochia (Bassia scoparia); test: Test A postemergence, kochia; conditions: Postemergence, 0 to 100 scale (0 no effect, 100 complete control)
Outline: as §1

[9] = test system: ragweed (common ragweed, Ambrosia artemisiifolia); test: Test A postemergence, ragweed; conditions: Postemergence, 0 to 100 scale (0 no effect, 100 complete control)
Outline: as §1

[10] = test system: Ryegrass, Italian (Italian ryegrass, Lolium multiflorum); test: Test A postemergence, Ryegrass, Italian; conditions: Postemergence, 0 to 100 scale (0 no effect, 100 complete control)
Outline: as §1

[11] = test system: Foxtail, Giant (giant foxtail, Setaria faberi); test: Test A postemergence, Foxtail, Giant; conditions: Postemergence, 0 to 100 scale (0 no effect, 100 complete control)
Outline: as §1

[12] = test system: pigweed (Amaranthus retroflexus); test: Test A postemergence, pigweed; conditions: Postemergence, 0 to 100 scale (0 no effect, 100 complete control)
Outline: as §1

[13] = test system: wheat (Triticum aestivum); test: Test A postemergence, wheat; conditions: Postemergence, 0 to 100 scale (0 no effect, 100 complete control)
Outline: as §2

[14] = test system: corn (Zea mays); test: Test A postemergence, corn; conditions: Postemergence, 0 to 100 scale (0 no effect, 100 complete control)
Outline: as §1

[15] = test system: blackgrass (Alopecurus myosuroides); test: Test A postemergence, blackgrass; conditions: Postemergence, 0 to 100 scale (0 no effect, 100 complete control)
Outline: as §1

[16] = test system: galium (catchweed bedstraw, Galium aparine); test: Test A postemergence, galium; conditions: Postemergence, 0 to 100 scale (0 no effect, 100 complete control)
Outline: as §2

[17] = 500 g ai/ha, visual injury approx. 10 days

| SMILES | Plant response rating, Barnyardgrass [1] | Barnyardgrass plant response rating [1] | Plant response rating, Kochia [2] | Kochia plant response rating [2] | Plant response rating, Ragweed [3] | Ragweed plant response rating [3] | Plant response rating, Ryegrass, Italian [4] | Ryegrass, Italian plant response rating [4] | Plant response rating, Foxtail, Giant [5] | Foxtail, Giant plant response rating [5] | Plant response rating, Pigweed [6] | Pigweed plant response rating [6] | Plant response rating, Barnyardgrass ([7]; 125 g ai/ha) | Plant response rating, Barnyardgrass [7, 17] | Plant response rating, Kochia ([8]; 125 g ai/ha) | Plant response rating, Kochia [8, 17] | Plant response rating, Ragweed ([9]; 125 g ai/ha) | Plant response rating, Ragweed [9, 17] | Plant response rating, Ryegrass, Italian ([10]; 125 g ai/ha) | Plant response rating, Ryegrass, Italian [10, 17] | further results |
| --- | --- | --- | --- | --- | --- | --- | --- | --- | --- | --- | --- | --- | --- | --- | --- | --- | --- | --- | --- | --- | --- |
| Cc1cc(C)c(N(S(=O)(=O)C(F)(F)F)S(=O)(=O)C(F)(F)F)cc1C(=O)N1CCCOCC1 [Compound 276] | 70 | 100 | 0 | 0 | 40 | 70 | 30 | 80 | 100 | 100 | 80 | 100 | 60 | 90 | 20 | 60 | 50 | 80 | 0 | 10 | Plant response rating, Foxtail, Giant ([11]; 125 g ai/ha): 10; Plant response rating, Foxtail, Giant [11, 17]: 90; Plant response rating, Pigweed ([12]; 125 g ai/ha): 60; Plant response rating, Pigweed [12, 17]: 80; Plant response rating, Wheat ([13]; 125 g ai/ha): 0; Plant response rating, Wheat [13, 17]: 20; Plant response rating, Corn ([14]; 125 g ai/ha): 0; Plant response rating, Corn [14, 17]: 20; Plant response rating, Blackgrass ([15]; 125 g ai/ha): 0; Plant response rating, Blackgrass [15, 17]: 0; Plant response rating, Galium ([16]; 125 g ai/ha): 80; Plant response rating, Galium [16, 17]: 90 |
| Cc1cc(C)c(C2=NOC3(CCCCCC3)C2)cc1NS(=O)(=O)C(F)(F)F [Compound 277] | 100 | 100 | 90 | 100 | 10 | 80 | 100 | 100 | 100 | 100 | 60 | 100 | 20 | 90 | 10 | 40 | 20 | 60 | 0 | 60 | Plant response rating, Foxtail, Giant ([11]; 125 g ai/ha): 30; Plant response rating, Foxtail, Giant [11, 17]: 90; Plant response rating, Pigweed ([12]; 125 g ai/ha): 30; Plant response rating, Pigweed [12, 17]: 70; Plant response rating, Wheat ([13]; 125 g ai/ha): 0; Plant response rating, Wheat [13, 17]: 70; Plant response rating, Corn ([14]; 125 g ai/ha): 10; Plant response rating, Corn [14, 17]: 70; Plant response rating, Blackgrass ([15]; 125 g ai/ha): 10; Plant response rating, Blackgrass [15, 17]: 60; Plant response rating, Galium ([16]; 125 g ai/ha): 100; Plant response rating, Galium [16, 17]: 100 |
